Measured values: paper PMC8627988 (Molecular Metabolism, 2021)

Target: T1, PPARγ (Homo sapiens, UniProt P37231)
T1 sequence (P37231 235-505 limits assumed): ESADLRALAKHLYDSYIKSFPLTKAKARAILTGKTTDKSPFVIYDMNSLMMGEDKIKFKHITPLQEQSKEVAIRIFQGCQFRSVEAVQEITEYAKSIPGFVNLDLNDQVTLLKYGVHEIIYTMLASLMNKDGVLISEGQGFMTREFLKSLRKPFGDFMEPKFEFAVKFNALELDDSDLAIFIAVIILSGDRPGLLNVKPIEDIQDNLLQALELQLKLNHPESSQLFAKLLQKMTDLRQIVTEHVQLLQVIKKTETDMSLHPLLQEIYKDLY
Test: fluorescence polarization competition binding

Compound: Cc1c(C)n(Cc2ccc(-c3ccccc3C(=O)O)cc2)c2ccc(C(=O)NCc3cccc(O)c3)cc12 [WO95E, 4'-((5-((3-hydroxybenzyl)carbamoyl)-2,3-dimethyl-1H-indol-1-yl)methyl)-[1,1′-biphenyl]-2-carboxylic acid]
- IC50: ~11 nM
